Experimental data published in US20250255847A1, “[…]s: Novel Drugs for Triple Negative Breast Cancer” (SIMMARON RSEARCH INC, priority 2024, published 2025).

Test system: MDA-MB-468 TNBC cells
Experiment: Annexin V / propidium iodide dual labeling in MDA-MB-468 cells
Format: cell-based, human
Conditions: 24 hrs; for membrane labeling of Annexin V and nuclear staining of PI: increasing doses
Experimental: FIG. 11 illustrates an embodiment of the present invention and illustrates SIM-1 and SIM-2 induced apoptosis in MDA-MB-468 TNBC cells, but not HMEC control cells. MDA-MB-468 cells were treated with increasing doses of (A) SIM-1 and (B) SIM-2 for 48 hrs followed by lactate dehydrogenase (LDH) release assay in the supernatants. The result was offset with cell-bound LDH and presented as a percent of DMSO control as discussed under method section. Half-maximal cytotoxicity or CT50 analyses were performed plotting maximum response as an index of increasing doses of (C) SIM-1 and (D) SIM-2. AnnexinV (green) and propidium iodide (red) dual-labeling were performed to evaluate apoptotic response in MDA-MB-468 cells once treated with increasing doses of (E) SIM-1 and (F) SIM-2 for 24 hrs. Nuclei were stained with DAPI. TUNEL assay was performed in MDA-MB-468 cells after treatment with 25 nM of (G) SIM-1. Brown-colored TUNEL bodies were visualized at cresyl violet-stained blue nuclei. (H) The number of TUNEL bodies were counted as a percent of 100 cresyl violet-stained blue cells. Ten independent images were counted for the quantification study. Similarly, SIM-2 was assessed for (I) TUNEL and (J) subsequent quantification analyses. One-way ANOVA was performed to test the significance of mean between groups at **p<0.01 and ****p<0.0001. (K) LDH release assay was performed in non-tumor origin human mammary epithelial cells (HMEC) once treated with increasing doses of SIM-1 and SIM-2 for 48 hrs. Ns=no significance. (L) Annexin V (green) and propidium iodide (red) staining was performed in 25 nM SIM-1- and SIM-2-treated HMEC cells. Nuclei were stained with DAPI. Results are confirmed after three different experiments.
Annexin V/PI Dual Staining Protocol. Annexin V/PI Dual Staining was performed as per manufacturer's instruction (Cat #: 2752665; Vendor: Thermo Fisher Scientific). Chamber slides of MDA-MB-468 cells in serum-free media were treated with SIMPYRA-1 and SIMPYRA-2 at doses of 2 nM, 5 nM, 10 nM, […] 50 nM for 24 hours at 37° C. Each well was washed with 1×PBS, then treated with 1× annexin-binding buffer, 100 ug/mL PI solution, and Annexin V solution. Chamber slides were incubated in the dark at room temperature for 2 hours. Each well was washed twice with 1×PBS and once with 1:500 dilution of DAPI in 1×PBS. Cells were imaged using CaptaVision+™ Software.
This example provides a representative experiment that studies if SIM-1 and SIM-2 promoted the death of TNBC cells. […] During apoptosis, phosphatidyl serine of the plasma membrane flips from the inner to the outer membrane which can be detected by Annexin V labeling, whereas PI stains the nucleus of a cell with compromised integrity of the plasma membrane. […]

Row | Structure (SMILES) | concentration of maximum Annexin V / PI labeling [nM] | membrane labeling of Annexin V and nuclear staining of PI
1 | CCOC(=O)c1c(NC(C)=O)sc2c(Cl)c(/C=N/O)ccc12 [SIM-2, ethyl 2-acetamido-7-chloro-6-(hydroxyiminomethyl)-1-benzothiophene-3-carboxylate] | 25 | dose-dependently increased
2 | O=C(O)CCC(=O)NCc1csc2ccc(Cl)cc12 [SIM-1, 4-[(5-chloro-1-benzothiophen-3-yl)methylamino]-4-oxobutanoic acid] | 25 | dose-dependently increased
